This passage reports IC50 results from BindingDB's records for doi:10.1111/j.1747-0285.2012.01443.x (Pfizer, 2012).

In this assay the target is Tyrosine-protein kinase SYK (Homo sapiens, UniProt P43405). The assay can be described thus: Syk Enzyme Assay. The following applies: pH 7.4; 25 °C. The source says:
A Lance TR-FRET assay (Perkin Elmer) was used to measure and compare the potency of compounds against Syk kinase domain.

The IC50 is the concentration needed to halve the response being measured. Higher therefore signals weaker potency. In turn, `COc1cc2nccc(Oc3ccc(NC(=O)N[C@@H]4C[C@H]4c4ccccc4)nc3)c2cc1OC` [Dimethoxyquinoline, 1] yielded a half-inhibitory concentration (IC50) of 320 nM. This lies in the sub-micromolar range.
